Converted amounts (≈) assume the structure as drawn. The source made the active and inactive calls. No cut-off for these calls is given here. Non-standard residues stand in square brackets, D forms with d. Residues, ends and D or L forms follow the SMILES beside them. Orn = NCCC[C@H](N)C(=O)O
Assays:
[1] = Hemolytic activity against RBC (unknown origin) at 20 uM; type: ADME, cell-based, Erythrocyte; details: red blood cells (erythrocytes); read-out: Activity
[2] = Hemolytic activity against RBC (unknown origin) at 40 uM; type: ADME, cell-based, Erythrocyte; details: red blood cells (erythrocytes); read-out: Activity
[3] = Hemolytic activity against RBC (unknown origin) at 1 uM; type: ADME, cell-based, Erythrocyte; details: red blood cells (erythrocytes); read-out: Activity
[4] = Hemolytic activity against RBC (unknown origin) at 240 uM; type: ADME, cell-based, Erythrocyte; details: red blood cells (erythrocytes); read-out: Activity
[5] = Hemolytic activity against RBC (unknown origin) at 10 uM; type: ADME, cell-based, Erythrocyte; details: red blood cells (erythrocytes); read-out: Activity
[6] = Hemolytic activity against RBC (unknown origin) at 60 uM; type: ADME, cell-based, Erythrocyte; details: red blood cells (erythrocytes); read-out: Activity
[7] = Hemolytic activity against RBC (unknown origin) at 480 uM; type: ADME, cell-based, Erythrocyte; details: red blood cells (erythrocytes); read-out: Activity
[8] = Hemolytic activity against RBC (unknown origin) at 120 uM; type: ADME, cell-based, Erythrocyte; details: red blood cells (erythrocytes); read-out: Activity
[9] = Hemolytic activity against RBC (unknown origin) at 5 uM; type: ADME, cell-based, Erythrocyte; details: red blood cells (erythrocytes); read-out: Activity
[10] = test system: Staphylococcus aureus; assay: Antibacterial activity against clinical isolate amoxicillin resistance Staphylococcus aureus; type: functional
[11] = test system: Staphylococcus aureus; assay: Bactericidal activity against clinical isolate amoxicillin resistance Staphylococcus aureus; type: functional
[12] = test system: Staphylococcus aureus; assay: Antibacterial activity against clinical isolate amoxicillin and ciprofloxacin resistance Staphylococcus aureus; type: functional
[13] = test system: Staphylococcus aureus; assay: Bactericidal activity against clinical isolate amoxicillin and ciprofloxacin resistance Staphylococcus aureus; type: functional
[14] = test system: Staphylococcus aureus; assay: Bactericidal activity against Staphylococcus aureus ATCC 209p; type: functional
[15] = test system: Bacillus cereus; assay: Antibacterial activity against Bacillus cereus; type: functional
[16] = test system: Bacillus cereus; assay: Bactericidal activity against Bacillus cereus; type: functional
[17] = test system: Staphylococcus aureus; assay: Antibacterial activity against Staphylococcus aureus ATCC 209p; type: functional
[18] = test system: Candida albicans; assay: Fungicidal activity against Candida albicans; type: functional
[19] = test system: Candida albicans; assay: Antifungal activity against Candida albicans; type: functional
[20] = test system: Trichophyton mentagrophytes; assay: Fungicidal activity against Trichophyton mentagrophytes; type: functional
[21] = test system: Trichophyton mentagrophytes; assay: Antifungal activity against Trichophyton mentagrophytes; type: functional
[22] = test system: MCF7; assay: Cytotoxicity against human MCF7 cells; type: functional, cell-based
[23] = test system: M-HeLa; assay: Cytotoxicity against human M-HeLa cells; type: functional, cell-based
[24] = Cytotoxicity against human Chang cells; type: cell-based
[25] = Selectivity index, ratio of IC50 for human Chang cells to IC50 for human MCF7 cells
[26] = Selectivity index, ratio of IC50 for human Chang cells to IC50 for human PANC1 cells
[27] = Selectivity index, ratio of IC50 for human Chang cells to IC50 for human HepG2 cells
[28] = test system: PANC-1; assay: Cytotoxicity against human PANC1 cells; type: functional, cell-based
[29] = test system: HepG2; assay: Cytotoxicity against human HepG2 cells; type: functional, cell-based
[30] = Selectivity index, ratio of IC50 for human Chang cells to IC50 for human M-HeLa cells

CC(C)C[C@@H]1NC(=O)[C@H](CCCN)NC(=O)[C@H](C(C)C)NC(=O)[C@@H]2CCCN2C(=O)[C@@H](Cc2ccccc2)NC(=O)[C@H](CC(C)C)NC(=O)[C@H](CCCN)NC(=O)[C@H](C(C)C)NC(=O)[C@@H]2CCCN2C(=O)[C@@H](Cc2ccccc2)NC1=O (cyclo(L[dF]PV[Orn]L[dF]PV[Orn]))
hemolysis at 20 µM [1]: 24% | hemolysis at 40 µM [2]: 98% | hemolysis at 1 µM [3]: 0% | hemolysis at 240 µM [4]: 100% | hemolysis at 10 µM [5]: 1.5% | hemolysis at 60 µM [6]: 99% | hemolysis at 480 µM [7]: 100% | hemolysis at 120 µM [8]: 100% | hemolysis at 5 µM [9]: 0.5%

CC1(C)S[C@@H]2[C@H](NC(=O)[C@H](N)c3ccc(O)cc3)C(=O)N2[C@H]1C(=O)O [AMOXICILLIN]
MIC [10]: 85.6 µM (≈ 31.3 µg/mL) | MBC [11]: 85.6 µM (≈ 31.3 µg/mL) | MIC [12]: 94.4 µM (≈ 34.5 µg/mL) | MBC [13]: 94.4 µM (≈ 34.5 µg/mL)

CC1COc2c(N3CCN(C)CC3)c(F)cc3c(=O)c(C(=O)O)cn1c23 (configuration not stated) [OFLOXACIN]
MBC [14]: 2.4 µM (≈ 0.867 µg/mL) | MIC [15]: 4.1 µM (≈ 1.48 µg/mL) | MBC [16]: 8.5 µM (≈ 3.07 µg/mL) | MIC [17]: 2.4 µM (≈ 0.867 µg/mL)

C=CCCCC[P+](Cc1ccccc1O)(c1ccccc1)c1ccccc1
MBC [14]: inactive | MIC [10]: inactive | MIC [15]: inactive | MFC [18]: inactive | MBC [11]: inactive | MBC [16]: inactive | MIC [19]: inactive | MIC [12]: inactive | MFC [20]: inactive | MBC [13]: inactive | MIC [21]: inactive | MIC [17]: 609 µM

CCCCCCC[P+](Cc1ccccc1O)(c1ccccc1)c1ccccc1.[Cl-]
MBC [14]: 18.3 µM | hemolysis at 20 µM [1]: 0.3% | MIC [10]: 73.2 µM | MIC [15]: 36.6 µM | MFC [18]: inactive | IC50 [22]: 32.8 µM | MBC [11]: 73.2 µM | MBC [16]: 146 µM | hemolysis at 40 µM [2]: 0.3% | hemolysis at 1 µM [3]: 0% | hemolysis at 240 µM [4]: 1.9% | hemolysis at 10 µM [5]: 0.2% | MIC [19]: 586 µM | IC50 [23]: 5.5 µM | hemolysis at 60 µM [6]: 0.3% | IC50 [24]: 41.6 µM | Ratio IC50 [25]: 1.3 | Ratio IC50 [26]: 1.04 | MIC [12]: 36.6 µM | MFC [20]: inactive | MBC [13]: 146 µM | Ratio IC50 [27]: 1.6 | IC50 [28]: 40 µM | IC50 ([29]; read-out: IC50): 26.3 µM | MIC [21]: 586 µM | MIC [17]: 18.3 µM | hemolysis at 480 µM [7]: 3.6% | hemolysis at 120 µM [8]: 0.4% | Ratio IC50 [30]: 7.6 | hemolysis at 5 µM [9]: 0%

CC(=O)N1CCN(c2ccc(OCC3COC(Cn4ccnc4)(c4ccc(Cl)cc4Cl)O3)cc2)CC1 (configuration not stated) [KETOCONAZOLE]
MFC [18]: 16.6 µM (≈ 8.82 µg/mL) | MIC [19]: 7.3 µM (≈ 3.88 µg/mL) | MFC [20]: 16.6 µM (≈ 8.82 µg/mL) | MIC [21]: 7.3 µM (≈ 3.88 µg/mL)

O=C(O)c1cn(C2CC2)c2cc(N3CCNCC3)c(F)cc2c1=O [CIPROFLOXACIN]
MBC [14]: 1.5 µM (≈ 0.497 µg/mL) | MIC [15]: 0.7 µM (≈ 0.232 µg/mL) | MBC [16]: 1.5 µM (≈ 0.497 µg/mL) | MIC [17]: 0.7 µM (≈ 0.232 µg/mL)

COc1cccc2c1C(=O)c1c(O)c3c(c(O)c1C2=O)C[C@@](O)(C(=O)CO)C[C@@H]3O[C@H]1C[C@H](N)[C@H](O)[C@H](C)O1 [DOXORUBICIN]
IC50 [24]: 3 µM | IC50 [28]: 3.2 µM | IC50 ([29]; read-out: IC50): 3.3 µM

CCCCCC[P+](Cc1ccccc1O)(c1ccccc1)c1ccccc1.[Cl-]
MBC [14]: 37.8 µM | hemolysis at 20 µM [1]: 0.2% | MIC [10]: 37.8 µM | MIC [15]: 37.8 µM | MFC [18]: inactive | IC50 [22]: 86 µM | MBC [11]: 151 µM | MBC [16]: 152 µM | hemolysis at 40 µM [2]: 0.2% | hemolysis at 1 µM [3]: 0% | hemolysis at 240 µM [4]: 2.5% | hemolysis at 10 µM [5]: 0% | MIC [19]: 606 µM | IC50 [23]: 50 µM | hemolysis at 60 µM [6]: 0.3% | IC50 [24]: 65.3 µM | Ratio IC50 [25]: 0.76 | Ratio IC50 [26]: 0.79 | MIC [12]: 75.6 µM | MFC [20]: inactive | MBC [13]: 302 µM | Ratio IC50 [27]: 0.78 | IC50 [28]: 82 µM | IC50 ([29]; read-out: IC50): 83 µM | MIC [21]: 606 µM | MIC [17]: 18.9 µM | hemolysis at 480 µM [7]: 4.8% | hemolysis at 120 µM [8]: 0.4% | Ratio IC50 [30]: 1.3 | hemolysis at 5 µM [9]: 0%

CCCCCCCC[P+](Cc1ccccc1O)(c1ccccc1)c1ccccc1.[Cl-]
MBC [14]: 8.8 µM | hemolysis at 20 µM [1]: 0% | MIC [10]: 17.7 µM | MIC [15]: 17.7 µM | MFC [18]: inactive | IC50 [22]: 12.5 µM | MBC [11]: 35.4 µM | MBC [16]: 17.7 µM | hemolysis at 40 µM [2]: 0.4% | hemolysis at 1 µM [3]: 0% | hemolysis at 240 µM [4]: 4.8% | hemolysis at 10 µM [5]: 0% | MIC [19]: 284 µM | IC50 [23]: 3.7 µM | hemolysis at 60 µM [6]: 0.6% | IC50 [24]: 46.3 µM | Ratio IC50 [25]: 3.7 | Ratio IC50 [26]: 3.7 | MIC [12]: 35.4 µM | MFC [20]: inactive | MBC [13]: 142 µM | Ratio IC50 [27]: 1.8 | IC50 [28]: 12.5 µM | IC50 ([29]; read-out: IC50): 25.7 µM | MIC [21]: 284 µM | MIC [17]: 8.8 µM | hemolysis at 480 µM [7]: 8.5% | hemolysis at 120 µM [8]: 2.3% | Ratio IC50 [30]: 12.5 | hemolysis at 5 µM [9]: 0%

CCCCCCCCCCCCCC[P+](Cc1ccccc1O)(c1ccccc1)c1ccccc1.[Cl-]
MBC [14]: 14.8 µM | hemolysis at 20 µM [1]: 0% | MIC [10]: 7.2 µM | MIC [15]: 3.6 µM | MFC [18]: inactive | IC50 [22]: 6.6 µM | MBC [11]: 28.8 µM | MBC [16]: 478 µM | hemolysis at 40 µM [2]: 0.3% | hemolysis at 1 µM [3]: 0% | hemolysis at 240 µM [4]: 100% | hemolysis at 10 µM [5]: 0% | MIC [19]: 478 µM | IC50 [23]: 3.5 µM | hemolysis at 60 µM [6]: 74% | IC50 [24]: 42.3 µM | Ratio IC50 [25]: 6.4 | Ratio IC50 [26]: 1.7 | MIC [12]: 7.2 µM | MFC [20]: inactive | MBC [13]: 28.8 µM | Ratio IC50 [27]: 6.4 | IC50 [28]: 25 µM | IC50 ([29]; read-out: IC50): 6.6 µM | MIC [21]: 478 µM | MIC [17]: 3.6 µM | hemolysis at 480 µM [7]: 100% | hemolysis at 120 µM [8]: 100% | Ratio IC50 [30]: 12.1 | hemolysis at 5 µM [9]: 0%

CC/C(=C(\c1ccccc1)c1ccc(OCCN(C)C)cc1)c1ccccc1 [TAMOXIFEN]
IC50 [24]: 46.2 µM | IC50 [29]: 23.4 µM

Source: ChEMBL document CHEMBL4622868, “Design and synthesis of amphiphilic 2-hydroxybenzylphosphonium salts with antimicrobial and antitumor dual action” (Bioorg Med Chem Lett, 2020)
